In PubChem BioAssay AID2060611 (Molecular Pharmacology Branch, DTP, NCI, 2025):

Test system: 628569-122-R-J1-PDC complex spheroid viability
Assay: Anticancer human tumor 628569-122-R-J1-PDC patient-derived head and neck squamous carcinoma cell line growth inhibition [CLK]
Conditions: for IC50: curve of first compound; for viability, T/C: stronger effect = lower value
Source text: A high-throughput screen of multi-cell type tumor spheroids was designed to identify active combinations of […] and targeted small molecules. Complex spheroids include a stromal component modeled by human endothelial cells (HUVEC) and fibroblasts modeled by human mesenchymal stem cells (MSCs). The concentration ranges selected for each drug and investigational agent were based upon clinically achievable concentrations if the clinical Cmax of the agent was known.
Compounds. The drugs and investigational agents: cirtuvivint (SM08502; NSC835563), CC-671 (NSC850746), vemurafenib (NSC761431), tapotoclax (NSC804041), sotorasib (NSC818433), adagrasib (NSC831453), MRTX-1133 (NSC836407), BAY2416964 (NSC825713), copanlisib (NSC816437), inavolisib (NSC800729), abemaciclib (NSC768073), osimertinib (NSC779217), entinostat (NSC756642), eltanexor (KPT-8602, NSC794443), venetoclax (NSC766270), ceralasertib (NSC777638), bortezomib (NSC756655), olaparib (NSC753686), talazoparib (NSC767125), alisertib (NSC759677), peposertib (NSC802822), gemcitabine (NSC613327), 5-fluorouracil (NSC19893), SN-38 (NSC673596), oxaliplatin (NSC266046), paclitaxel (NSC125973), and doxorubicin (NSC123127), were obtained from the National Cancer Institute (NCI) Developmental Therapeutics Program Chemical Repository. The FDA-approved anticancer drug set is available from the Developmental Therapeutics Program at https://dtp.cancer.gov/organization/dscb/obtaining/available plates.htm. […] The stock solutions were prepared in dimethyl sulfoxide (DMSO, Sigma-Aldrich, St. Louis, MO, cat. D2650), except for the platinum complexes which were prepared in saline (Quality Biological, Gaithersburg, MD, cat. 114-055-101), at 800-fold the tested concentration and stored at -70 degrees C prior to their use. All drugs and investigational agents were tested over a range starting from a high concentration at or near the clinical Cmax and decreasing in half-log increments. If the clinical Cmax for an agent had not been determined, the highest concentration tested was 10 microM.
Cell Culture. All cells were maintained in an incubator at 37 degrees C and 5% CO2 with 95% humidity. The PDC lines were cultured according to standard operating procedures established by the NCI PDMR. Briefly, all PDCs were thawed and cultured in Matrigel-coated flasks prepared with a working solution of 1X Ham's F-12 nutrient mix, without supplementation (Invitrogen, Waltham, MA, cat. 11765054), 100 U/mL penicillin-streptomycin (Invitrogen, cat. 15140122), and 2.5% Matrigel (Corning Inc., Corning, NY, cat. 354248) for the first three passages. The 947758-054-R-J2-PDC line was cultured in 6B/Colon 1A media, which includes advanced DMEM/F-12 (Thermo Fisher Scientific, cat. 12634028), 10 mM HEPES (Thermo Fisher Scientific, cat. 15630080), 1X GlutaMAX supplement (Thermo Fisher Scientific, cat. 35050061), 0.1 mg/mL primocin (InvivoGen, cat. ant-pm-2), 10% defined fetal bovine serum, heat inactivated (HyClone Laboratories Inc., cat. SH30070.03HI), 1.25 mM N-Acetyl-L-cysteine (Sigma-Aldrich, cat. A9165), 10 mM nicotinamide (Sigma-Aldrich, cat. N0636), 1X B-27 supplement (Thermo Fisher Scientific, cat. 17504044), 1X N-2 supplement (Thermo Fisher Scientific, cat. 17502048), and 10 microM Y-27632 dihydrochloride (Tocris Bioscience, cat. 1254). The 876862-298-R-J1-PDC was cultured in 6E media, which includes all 6B/Colon 1A media components plus 50% L-WRN conditioned media (ATCC, cat. CRL-3276), 50 ng/mL recombinant human EGF recombinant protein (hEGF; Thermo Fisher Scientific, cat. PHG0311), 10 ng/mL recombinant human fibroblast growth factor 10 (hGFG-10; PeproTech, cat. 100-26), 1 ng/mL recombinant human fibroblast growth factor 2 (hFGF-2; PeproTech, cat. 100-18B), and 1 µM prostaglandin E2 (PGE2; Tocris, cat. 2296). The 227483-062-R1-J1-PDC line was cultured in Panc media, containing all 6E components except hFGF-2, with the addition of 500 nM SB-431542 (Selleckchem, cat. S1067) and 10 nM gastrin (Tocris, cat. 3006). […]

[1] = second compound 0.0316 µM, first compound 0.0316 µM
[2] = second compound 0.0316 µM, first compound 0.1 µM
[3] = second compound 0.0316 µM, first compound 0.316 µM
[4] = second compound 0.0316 µM, first compound 1 µM
[5] = second compound 0.0316 µM, first compound 3.16 µM
[6] = second compound 0.0316 µM, first compound 10 µM
[7] = second compound 0.1 µM, first compound 0.0316 µM
[8] = second compound 0.1 µM, first compound 0.1 µM
[9] = second compound 0.1 µM, first compound 0.316 µM
[10] = second compound 0.1 µM, first compound 1 µM
[11] = second compound 0.1 µM, first compound 3.16 µM
[12] = second compound 0.1 µM, first compound 10 µM
[13] = second compound 0.316 µM, first compound 0.0316 µM
[14] = second compound 0.316 µM, first compound 0.1 µM
[15] = second compound 0.316 µM, first compound 0.316 µM
[16] = second compound 0.316 µM, first compound 1 µM
[17] = second compound 0.316 µM, first compound 3.16 µM
[18] = second compound 0.316 µM, first compound 10 µM
[19] = second compound 1 µM, first compound 0.0316 µM
[20] = second compound 1 µM, first compound 0.1 µM
[21] = second compound 1 µM, first compound 0.316 µM
[22] = second compound 1 µM, first compound 1 µM
[23] = second compound 1 µM, first compound 3.16 µM
[24] = second compound 1 µM, first compound 10 µM
[25] = second compound 3.16 µM, first compound 0.0316 µM
[26] = second compound 3.16 µM, first compound 0.1 µM
[27] = second compound 3.16 µM, first compound 0.316 µM
[28] = second compound 3.16 µM, first compound 1 µM
[29] = second compound 3.16 µM, first compound 3.16 µM
[30] = second compound 3.16 µM, first compound 10 µM
[31] = second compound 10 µM, first compound 0.0316 µM
[32] = second compound 10 µM, first compound 0.1 µM
[33] = second compound 10 µM, first compound 0.316 µM
[34] = second compound 10 µM, first compound 1 µM
[35] = second compound 10 µM, first compound 3.16 µM
[36] = second compound 10 µM, first compound 10 µM
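Further: spheroids exposed to agents for seven days before readout.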
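Wherever viability, T/C is given: 100% = DMSO vehicle control viability.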

## C#Cc1c(F)ccc2cc(O)cc(-c3ncc4c(N5CC6CCC(C5)N6)nc(OCC56CCCN5CC(F)C6)nc4c3F)c12 (stereo unspecified) + CN1CCN(c2cc(C(=O)Nc3cc4cc(-c5cnn(C)c5)ccc4cn3)ccn2)CC1
Second compound 0.0316 µM
  IC50: > 10000 nM
Second compound 0.1 µM
  IC50: > 10000 nM
Second compound 0.316 µM
  IC50: < 31.6 nM
Second compound 1 µM
  IC50: < 31.6 nM
Second compound 3.16 µM
  IC50: < 31.6 nM
Second compound 10 µM
  IC50: < 31.6 nM
[1]
  viability, T/C: 80.5%
[2]
  viability, T/C: 100%
[3]
  viability, T/C: 88.8%
[4]
  viability, T/C: 92.9%
[5]
  viability, T/C: 84.8%
[6]
  viability, T/C: 96%
[7]
  viability, T/C: 56.6%
[8]
  viability, T/C: 61.1%
[9]
  viability, T/C: 64.8%
[10]
  viability, T/C: 63.3%
[11]
  viability, T/C: 57.1%
[12]
  viability, T/C: 44.9%
[13]
  viability, T/C: 32.3%
[14]
  viability, T/C: 33.5%
[15]
  viability, T/C: 34.9%
[16]
  viability, T/C: 42.4%
[17]
  viability, T/C: 37.6%
[18]
  viability, T/C: 29.9%
[19]
  viability, T/C: 7.93%
[20]
  viability, T/C: 5.94%
[21]
  viability, T/C: 7.93%
[22]
  viability, T/C: 8.03%
[23]
  viability, T/C: 5.77%
[24]
  viability, T/C: 5.01%
[25]
  viability, T/C: 9.44%
[26]
  viability, T/C: 7.11%
[27]
  viability, T/C: 5.82%
[28]
  viability, T/C: 5.27%
[29]
  viability, T/C: 5.66%
[30]
  viability, T/C: 7.7%
[31]
  viability, T/C: 5.72%
[32]
  viability, T/C: 3.17%
[33]
  viability, T/C: 2.28%
[34]
  viability, T/C: 4.25%
[35]
  viability, T/C: 5.23%
[36]
  viability, T/C: 1%

## C=C(F)C(=O)N1CCN(c2nc(OCC3CCCN3C)nc3c2CCN(c2cccc4cccc(Cl)c24)C3)CC1CC#N (stereo unspecified) + CN1CCN(c2cc(C(=O)Nc3cc4cc(-c5cnn(C)c5)ccc4cn3)ccn2)CC1
Second compound 0.0316 µM
  IC50: 7260 nM
Second compound 0.1 µM
  IC50: 4560 nM
Second compound 0.316 µM
  IC50: < 31.6 nM
Second compound 1 µM
  IC50: < 31.6 nM
Second compound 3.16 µM
  IC50: < 31.6 nM
Second compound 10 µM
  IC50: < 31.6 nM
[1]
  viability, T/C: 102%
[2]
  viability, T/C: 80.5%
[3]
  viability, T/C: 98.3%
[4]
  viability, T/C: 108%
[5]
  viability, T/C: 113%
[6]
  viability, T/C: 30.6%
[7]
  viability, T/C: 64.3%
[8]
  viability, T/C: 67.4%
[9]
  viability, T/C: 64.1%
[10]
  viability, T/C: 62.7%
[11]
  viability, T/C: 87.9%
[12]
  viability, T/C: 8.57%
[13]
  viability, T/C: 35%
[14]
  viability, T/C: 37.6%
[15]
  viability, T/C: 34.7%
[16]
  viability, T/C: 32.2%
[17]
  viability, T/C: 39.1%
[18]
  viability, T/C: 2.52%
[19]
  viability, T/C: 7.05%
[20]
  viability, T/C: 4.72%
[21]
  viability, T/C: 5.61%
[22]
  viability, T/C: 5%
[23]
  viability, T/C: 5.11%
[24]
  viability, T/C: 1.51%
[25]
  viability, T/C: 6.63%
[26]
  viability, T/C: 4.67%
[27]
  viability, T/C: 7.01%
[28]
  viability, T/C: 6.75%
[29]
  viability, T/C: 3.34%
[30]
  viability, T/C: 0.55%
[31]
  viability, T/C: 1.82%
[32]
  viability, T/C: 2.41%
[33]
  viability, T/C: 3.57%
[34]
  viability, T/C: 3.3%
[35]
  viability, T/C: 0.98%
[36]
  viability, T/C: 1.32%

## CC(CO)NC(=O)c1cc(-c2ccc(Cl)cc2)nn(-c2cnn(C)c2)c1=O (stereo unspecified) + CN1CCN(c2cc(C(=O)Nc3cc4cc(-c5cnn(C)c5)ccc4cn3)ccn2)CC1
Second compound 0.0316 µM
  IC50: > 10000 nM
Second compound 0.1 µM
  IC50: > 10000 nM
Second compound 0.316 µM
  IC50: > 10000 nM
Second compound 1 µM
  IC50: < 31.6 nM
Second compound 3.16 µM
  IC50: < 31.6 nM
Second compound 10 µM
  IC50: < 31.6 nM
[1]
  viability, T/C: 141%
[2]
  viability, T/C: 195%
[3]
  viability, T/C: 196%
[4]
  viability, T/C: 216%
[5]
  viability, T/C: 205%
[6]
  viability, T/C: 173%
[7]
  viability, T/C: 113%
[8]
  viability, T/C: 142%
[9]
  viability, T/C: 151%
[10]
  viability, T/C: 152%
[11]
  viability, T/C: 152%
[12]
  viability, T/C: 148%
[13]
  viability, T/C: 62.6%
[14]
  viability, T/C: 63.5%
[15]
  viability, T/C: 68.9%
[16]
  viability, T/C: 77.1%
[17]
  viability, T/C: 73%
[18]
  viability, T/C: 76.2%
[19]
  viability, T/C: 8.6%
[20]
  viability, T/C: 5.35%
[21]
  viability, T/C: 7.74%
[22]
  viability, T/C: 6.71%
[23]
  viability, T/C: 4.91%
[24]
  viability, T/C: 5.72%
[25]
  viability, T/C: 7.85%
[26]
  viability, T/C: 5.72%
[27]
  viability, T/C: 7.76%
[28]
  viability, T/C: 7.17%
[29]
  viability, T/C: 7.12%
[30]
  viability, T/C: 7.82%
[31]
  viability, T/C: 4.35%
[32]
  viability, T/C: 2.99%
[33]
  viability, T/C: 3.66%
[34]
  viability, T/C: 2.79%
[35]
  viability, T/C: 4.67%
[36]
  viability, T/C: 2.07%
